These are literature values, as cited in PMC9890135 (Molecular Cancer Therapeutics, 2022).

The conditions of this data set: cited from earlier work.

Consider `COc1cc2nccc(Oc3ccc(NC(=O)C4(C(=O)Nc5ccc(F)cc5)CC4)cc3)c2cc1OC` [Cabozantinib, cabozantinib], for which the plasma half-life result is reported as “approximately 99 hours”.
